Source: ChEMBL document CHEMBL5576094, “A Diterpenoid of the Medicinal Plant Andrographis paniculata Targets Cutaneous TRPV3 Channel and Relieves Itch” (J Nat Prod, 2024)

What was measured:
[1] = organism: Mus musculus; assay: Antipruritic activity in carvacrol-induced scratching C57B/6 mouse model assessed as inhibition of neck scratching behavior at 10 uM, ID pretreated for 30 mins followed by carvacrol stimulation and measured for 30 mins relative to control; assay type: functional; details: C57B/6, 1 h, time 60 min
[2] = organism: Mus musculus; assay: Antipruritic activity in carvacrol-induced scratching C57B/6 mouse model assessed as inhibition of neck scratching behavior at 50 uM, ID pretreated for 30 mins followed by carvacrol stimulation and measured for 30 mins relative to control; assay type: functional; details: C57B/6, 1 h, time 60 min
[3] = biological target: T1, Transient receptor potential cation channel subfamily V member 3 (Homo sapiens, UniProt Q8NET8); assay: Inhibition of human TRPV3 expressed in HEK293 cells assessed as reduction in 2-APB induced channel current at voltage ramp from -100 to +100 mV by whole-cell patch clamp electrophysiology; assay type: cell-based
T1 sequence (Q8NET8 whole entry): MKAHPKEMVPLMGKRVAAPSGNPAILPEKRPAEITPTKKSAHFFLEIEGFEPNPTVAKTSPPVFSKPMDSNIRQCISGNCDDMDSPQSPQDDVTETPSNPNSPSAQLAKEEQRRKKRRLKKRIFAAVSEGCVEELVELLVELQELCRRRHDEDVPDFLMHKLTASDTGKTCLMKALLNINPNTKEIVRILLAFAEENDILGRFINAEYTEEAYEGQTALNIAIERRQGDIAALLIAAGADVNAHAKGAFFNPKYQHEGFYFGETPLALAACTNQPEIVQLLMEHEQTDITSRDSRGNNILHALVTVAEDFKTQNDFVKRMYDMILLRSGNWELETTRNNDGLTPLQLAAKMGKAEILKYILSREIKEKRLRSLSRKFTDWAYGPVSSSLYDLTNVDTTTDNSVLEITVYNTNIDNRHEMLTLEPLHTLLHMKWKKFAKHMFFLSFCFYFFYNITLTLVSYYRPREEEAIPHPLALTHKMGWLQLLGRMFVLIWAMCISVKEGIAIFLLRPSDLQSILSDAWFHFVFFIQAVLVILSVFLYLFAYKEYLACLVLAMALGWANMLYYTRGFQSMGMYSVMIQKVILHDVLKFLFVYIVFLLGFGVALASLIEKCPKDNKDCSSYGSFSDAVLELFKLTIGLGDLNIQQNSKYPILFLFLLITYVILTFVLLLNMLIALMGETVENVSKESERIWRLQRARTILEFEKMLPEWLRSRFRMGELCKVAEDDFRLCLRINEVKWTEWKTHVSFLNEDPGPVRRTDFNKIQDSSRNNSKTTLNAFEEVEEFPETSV

[4] = organism: Mus musculus; assay: Antipruritic activity in carvacrol-induced scratching C57BL/6 mouse model assessed as inhibition of neck scratching behavior at 30 uM, ID pretreated for 30 mins followed by carvacrol stimulation and measured for 30 mins relative to control; assay type: functional; details: C57BL/6, 1 h, time 60 min
[5] = organism: Mus musculus; assay: Antipruritic activity in carvacrol-induced scratching C57BL/6 mouse model assessed as inhibition of neck scratching behavior at 300 uM, ID pretreated for 30 mins followed by carvacrol stimulation and measured for 30 mins relative to control; assay type: functional; details: C57BL/6, 1 h, time 60 min
[6] = organism: Mus musculus; assay: Antipruritic activity in histamine-induced scratching C57BL/6 mouse model assessed as inhibition of neck scratching behavior at 0.3 to 30 uM, ID pretreated for 30 mins followed by histamine stimulation and measured for 30 mins relative to control; assay type: functional; details: dose 0.3-30 µM, time 60 min, 1 h

IC50 [3] [µM]	SMILES	inhibition in vivo at 10 µM [1] [%]	inhibition in vivo at 50 µM [2] [%]	inhibition in vivo at 30 µM [4] [%]	inhibition in vivo at 300 µM [5] [%]	inhibition (INH) [6] [%]
	CCCCOc1ccc(C(=O)CCN2CCCCC2)cc1 [DYCLONINE]	~41	100			
6.7	C[C@@H]1O[C@@H](O[C@@H]2[C@@H](O)[C@H](OCCc3ccc(O)c(O)c3)O[C@H](CO[C@@H]3OC[C@](O)(CO)[C@H]3O)[C@H]2OC(=O)/C=C/c2ccc(O)c(O)c2)[C@H](O)[C@H](O)[C@H]1O			~56	77	57
